According to the NIST ThermoML archive (doi:10.1021/je0601457):
± gives the expanded uncertainty stated by the source.

Assay: xn = mol fraction of the nth substance listed

Cc1cnccn1 [2-methylpyrazine] + O=C=O
Fluid (supercritical or subcritical phases), Linear displacement technique
Settings	mass density [kg/m3]
305.05 K, 15480 kPa, x1 = 0.624	942 ± 38
307.45 K, 8340 kPa, x1 = 0.339	950 ± 38
307.45 K, 11280 kPa, x1 = 0.339	957 ± 38
307.45 K, 16170 kPa, x1 = 0.339	965 ± 39
307.55 K, 2720 kPa, x1 = 0.857	922 ± 37
307.55 K, 4900 kPa, x1 = 0.857	926 ± 37
307.55 K, 6860 kPa, x1 = 0.857	928 ± 37
307.55 K, 11550 kPa, x1 = 0.857	934 ± 37
309.15 K, 8070 kPa, x1 = 0.122	948 ± 41
309.15 K, 11140 kPa, x1 = 0.122	972 ± 39
309.15 K, 14720 kPa, x1 = 0.122	992 ± 40
309.95 K, 8520 kPa, x1 = 0.017	652 ± 27
309.95 K, 10170 kPa, x1 = 0.017	701 ± 29
309.95 K, 11590 kPa, x1 = 0.017	724 ± 31
311.75 K, 8520 kPa, x1 = 0.033	764 ± 32
311.75 K, 10790 kPa, x1 = 0.033	831 ± 34
311.75 K, 13310 kPa, x1 = 0.033	871 ± 35
311.75 K, 15760 kPa, x1 = 0.033	905 ± 37
315.25 K, 9690 kPa, x1 = 0.039	722 ± 30
315.25 K, 10690 kPa, x1 = 0.039	749 ± 31
315.25 K, 12660 kPa, x1 = 0.039	777 ± 31
315.25 K, 14660 kPa, x1 = 0.039	812 ± 33
315.45 K, 8620 kPa, x1 = 0.062	781 ± 32
315.45 K, 11210 kPa, x1 = 0.062	824 ± 33
315.45 K, 13170 kPa, x1 = 0.062	846 ± 34
315.45 K, 16310 kPa, x1 = 0.062	879 ± 35
316.45 K, 6030 kPa, x1 = 0.624	912 ± 36
316.45 K, 10030 kPa, x1 = 0.624	917 ± 37
316.45 K, 13210 kPa, x1 = 0.624	920 ± 37
316.45 K, 17280 kPa, x1 = 0.624	926 ± 37
317.55 K, 11280 kPa, x1 = 0.091	882 ± 35
317.55 K, 14550 kPa, x1 = 0.091	913 ± 37
317.55 K, 16520 kPa, x1 = 0.091	930 ± 37
317.85 K, 8520 kPa, x1 = 0.156	887 ± 36
317.85 K, 11140 kPa, x1 = 0.156	898 ± 36
317.85 K, 12310 kPa, x1 = 0.156	899 ± 36
317.95 K, 7340 kPa, x1 = 0.264	858 ± 34
317.95 K, 9000 kPa, x1 = 0.264	863 ± 35
317.95 K, 11830 kPa, x1 = 0.264	872 ± 35
317.95 K, 15410 kPa, x1 = 0.264	882 ± 35
320.75 K, 10340 kPa, x1 = 0.122	910 ± 37
320.75 K, 11760 kPa, x1 = 0.122	924 ± 37
320.75 K, 14380 kPa, x1 = 0.122	944 ± 38
322.95 K, 4760 kPa, x1 = 0.857	905 ± 36
322.95 K, 8520 kPa, x1 = 0.857	909 ± 36
322.95 K, 12620 kPa, x1 = 0.857	914 ± 37
322.95 K, 17030 kPa, x1 = 0.857	918 ± 37
325.15 K, 7000 kPa, x1 = 0.339	932 ± 37
325.15 K, 10590 kPa, x1 = 0.339	941 ± 38
325.15 K, 15280 kPa, x1 = 0.339	952 ± 38
326.65 K, 11620 kPa, x1 = 0.039	667 ± 28
326.65 K, 12280 kPa, x1 = 0.039	690 ± 30
326.65 K, 13620 kPa, x1 = 0.039	725 ± 30
327.35 K, 10790 kPa, x1 = 0.091	808 ± 33
327.35 K, 11520 kPa, x1 = 0.091	822 ± 33
327.35 K, 13340 kPa, x1 = 0.091	848 ± 34
327.35 K, 15830 kPa, x1 = 0.091	875 ± 35
328.75 K, 9900 kPa, x1 = 0.156	872 ± 35
328.75 K, 11000 kPa, x1 = 0.156	878 ± 35
328.75 K, 13900 kPa, x1 = 0.156	890 ± 36
329.15 K, 10450 kPa, x1 = 0.017	407 ± 36
329.15 K, 11930 kPa, x1 = 0.017	574 ± 33

Liquid, linear displacement
Settings	mass density [kg/m3]
305.05 K, x1 = 0.624	919 ± 37
307.45 K, x1 = 0.339	937 ± 37
307.55 K, x1 = 0.857	916 ± 37
309.15 K, x1 = 0.122	934 ± 37
309.95 K, x1 = 0.017	621 ± 25
311.75 K, x1 = 0.033	747 ± 30
315.25 K, x1 = 0.039	682 ± 27
315.45 K, x1 = 0.062	766 ± 31
316.45 K, x1 = 0.624	907 ± 36
317.55 K, x1 = 0.091	841 ± 34
317.85 K, x1 = 0.156	885 ± 35
317.95 K, x1 = 0.264	856 ± 34
320.75 K, x1 = 0.122	890 ± 36
322.95 K, x1 = 0.857	900 ± 36
325.15 K, x1 = 0.339	929 ± 37
326.65 K, x1 = 0.039	595 ± 24
327.35 K, x1 = 0.091	794 ± 33
328.75 K, x1 = 0.156	868 ± 35
